Results on one compound are retold here after patent US10265303B2, “Hyperphenylalaninemia and treatments thereof” (BERGEN TEKNOLOGIOVERFØRING AS, priority 2015, dated 2019).

Numbering of substitutions follows the chain as printed.

Assay type in all cases: cell-based
The target of test [1] is T1, human wild-type PAH (Homo sapiens, UniProt P00439).
T1 construct: expressed in transfected cells
T1 sequence (P00439 1-452): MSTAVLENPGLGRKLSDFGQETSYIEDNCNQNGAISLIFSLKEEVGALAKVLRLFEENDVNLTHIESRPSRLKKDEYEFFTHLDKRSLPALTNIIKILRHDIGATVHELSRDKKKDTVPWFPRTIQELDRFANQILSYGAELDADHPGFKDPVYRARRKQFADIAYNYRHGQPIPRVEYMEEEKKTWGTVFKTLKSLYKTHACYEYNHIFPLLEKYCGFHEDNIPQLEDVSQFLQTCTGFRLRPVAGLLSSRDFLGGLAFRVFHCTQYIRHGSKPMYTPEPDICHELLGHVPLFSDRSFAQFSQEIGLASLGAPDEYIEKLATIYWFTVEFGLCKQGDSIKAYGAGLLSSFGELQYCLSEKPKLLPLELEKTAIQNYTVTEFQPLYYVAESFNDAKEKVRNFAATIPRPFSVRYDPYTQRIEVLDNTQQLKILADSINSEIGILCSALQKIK
Nature of the test: PAH activity in lysates of HEK293 cells permanently expressing human wild-type PAH. On the procedure: (§1) Human embryonic kidney cells (HEK293; Life Technologies™) permanently expressing WT-hPAH, prepared with the Flp-In system (Life Technologies™) were kindly provided by Per Knappskog, Haukeland University Hospital. About 1 million cells were grown in DMEM medium containing 4.5 g/l glucose, 10% (v/v) fetal calf serum, 0.25 mg/ml gentamycine, 2 mM L-glutamine and 50 μg/ml hygromycin B, and after 24 h medium was changed and the test compounds were added at a concentration of 0.02 mg/ml (1% DMSO). Eight hours later, the cells were harvested, and the pellets frozen in dry ice and stored at −80° C. […] To prepare the cell extracts, the frozen cell pellets were thawed in TBS (+protease inhibitor) buffer and cells were homogenized with 0.1% TX-100, incubated 15 minutes at 4° C. and extracts were clarified by centrifugation 20000 g for 15 min at 4° C. Protein concentrations were normalized using a Direct Detect Spectrometer (Merck Millipore).
The 7 selected compounds as well as the first generation pharmacological chaperones (Compounds III and IV) were further analyzed in the presence and absence of BH2 (200 μM), added as precursor of BH4, to account for additive effects. […]
as §1, with “and the compounds were” for “and the test compounds were”, “concentration of 0.04 mg/ml (1%” for “concentration of 0.02 mg/ml (1%”, “for 15 minutes at 4°” for “for 15 min at 4°”

The target of test [2] is T1, human wild-type PAH. Nature of the test: PAH immunoreactive protein level (Western blot) in HEK293 cells permanently expressing human wild-type PAH. As to conditions: 0.04 mg/ml (average 116.7 μM), 1% DMSO, 8 h. Here is the method: as §1
The 7 selected compounds as well as the first generation pharmacological chaperones (Compounds III and IV) were further analyzed in the presence and absence of BH2 (200 μM), added as precursor of BH4, to account for additive effects. A higher concentration of compound was also used 0.04 mg/ml (average of 116.7 μM) at otherwise same experimental conditions.

Another test concerns the target T2, R252W-PAH (Homo sapiens, UniProt P00439, R252W).
T2 construct: expressed in transfected cells; host or cells: HEK293 EBNA, transient, pcDNA3-PAH
T2 sequence (P00439 1-452 R252W): T1 sequence (P00439 1-452) with R252W
Nature of the test: PAH protein level and activity in HEK293 EBNA cells transiently expressing PKU mutant R252W. Here is the method:
A similar assay was used to measure PAH activity in cells lysates using 1 mM L-Phe and 200 μM BH4 with 10 min reactions and about 20-90 μg of total protein. Free amino acids and contaminants of low molecular weight were previously removed from the extracts using Zebra Desalt Spin columns (Pierce Biotechnology).
For transient expression of WT and mutant PAH, HEK293 EBNA (Epstein-Barr virus) cells, with low endogenous PAH expression, were grown as above. Cells were grown for 19 h, when they were transfected transiently transfected with […] of pcDNA3-PAH vector (WT or mutant PAH constructs R261Q, R252W, I65T and R68S) using the Lipofectamine system (Life Technologies™) as described by the manufacturer. Compound 53, with and without BH2 (200 μM) was added after 5 h of transfection at 200 μM concentration in 1% DMSO, and further incubated for 24 h, at which time the cells were harvested and stored at −80° C. In all cases a parallel negative control with only 1% DMSO was included. Cell lysates were prepared as indicated above.
Western blot analyses were performed on either cell extracts from permanently expressing or transiently transfected HEK293 cell lysates after SDS-PAGE (10% acrylamide) with 5-10 μg total protein in each lane. […] Neomycin phosphotransferase II was used as a marker of the plasmid transfection efficiency, and GAPDH was used as loading controls. […]

`COc1cc(Cc2cnc(N)nc2N)cc(OC)c1OC` [c53, trimethoprim]: at human wild-type PAH [1] (0.04 mg/ml (average 116.7 μM), 1% DMSO, 8 h), the “effect on PAH activity (FIG. 1A)” value was “very large stimulating effect”. The “PAH activity-cells (%)” value at human wild-type PAH [1] (0.04 mg/ml compound, 1% DMSO, 8 h, Table 3) is 148 ± 16%. In addition, the “increase of hPAH activity with respect to the control (FIG. 6)” value on human wild-type PAH [1] (average compound concentration 144.9 μM, 1% DMSO, 8 h) was “around 40%”. Besides, the “effect on PAH activity together with BH2 (FIG. 1B)” value on human wild-type PAH [1] (compound average 116.7 μM plus BH2 200 μM) was “additive”. Also, the “effect on PAH protein (FIG. 1A)” value at human wild-type PAH [2] is reported as “very large stimulating effect”. In addition, the “effect on mutant R252W (protein, activity)” value at R252W-PAH (200 μM alone, 24 h, 1% DMSO) is reported as “neither the compound or BH4 affected”. In addition, on R252W-PAH (Compound 53 200 μM plus BH2 200 μM, 24 h (FIG. 2D)), the “protein content, mutant R252W, compound and cofactor analogue together” value was “a little stimulation of the protein content”.
